Data published in patent US5635593A (priority 1995, dated 1997).
Square brackets hold non-standard residues; d marks the D form. Peptide text beside a SMILES is read from it. Oic = O=C(O)[C@@H]1C[C@@H]2CCCC[C@@H]2N1; Hyp = O=C(O)[C@@H]1C[C@@H](O)CN1; dTic = O=C(O)[C@H]1Cc2ccccc2CN1; 2Thi = N[C@@H](Cc1cccs1)C(=O)O

Legend:
[1] = biological target: T1, BK1 receptor (Oryctolagus cuniculus, UniProt P48748); test: rabbit aorta in vitro, reversal of des-Arg^9 -BK contraction; set-up: on rabbit aorta (BK1 -receptor) in vitro; from tissue; host or cells: rabbit aorta; details: negative log of molar concentration causing 50% reversal of des-Arg^9 -BK (10^-7 M) contraction
T1 sequence (P48748 1-352): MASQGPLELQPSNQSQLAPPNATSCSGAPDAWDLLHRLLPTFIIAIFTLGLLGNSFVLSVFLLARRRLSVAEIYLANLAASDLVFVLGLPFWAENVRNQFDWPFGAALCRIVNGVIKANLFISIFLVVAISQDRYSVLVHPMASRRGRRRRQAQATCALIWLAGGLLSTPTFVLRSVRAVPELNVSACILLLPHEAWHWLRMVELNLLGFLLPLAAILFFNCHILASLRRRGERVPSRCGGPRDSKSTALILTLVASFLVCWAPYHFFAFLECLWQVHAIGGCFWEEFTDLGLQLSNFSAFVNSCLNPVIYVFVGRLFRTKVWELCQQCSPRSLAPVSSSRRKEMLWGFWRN
Procedure: Each antagonist was then added, in a cumulative fashion, on top of the contraction and the negative log of the molar concentration of the antagonist causing a 50% reversal (IC50) of the […] measured.

[2] = biological target: T1, BK1 receptor; test: blood pressure response to BK1 agonist in LPS-pretreated rabbits; type: in vivo, rabbit; set-up: from tissue; host or cells: whole animal (rabbit, LPS-pretreated), blood pressure response; key to observed antagonist activity BK1, 1 / observed antagonist activity BK1, 3 / observed antagonist activity BK1, 10: +: complete blockade of the blood pressure response to the appropriate agonist; ±: partial blockade; -: no observable effect at the dose indicated; details: rabbits given LPS (10 μg) 20 hours before; for observed antagonist activity BK1, 1: 1 μg kg^-1 min^-1; for observed antagonist activity BK1, 3: 3 μg kg^-1 min^-1; for observed antagonist activity BK1, 10: 10 μg kg^-1 min^-1
Description: (§1) That heterodimeric constructs block the activities attributable to two different receptor populations simultaneously when administered to an intact animal has been known using a standard assay of BK2 and BK1 receptor activity (see, deBlois, Bouthillier, and Marceau, Brit. J. Pharm., 103, 1057-1066, 1991). In normal rabbits, no changes in systemic arterial blood pressure can be detected in response to challenges with BK1 receptor agonists. There is, however, a predictable and reproducible response to BK2 agonists constituatively present. After stimulation with LPS BK1 receptor activity will develop over time such that profound responses to doses of BK1 agonists that were previously inconsequential in nature are observed after a 3-4 hour period. Responses to BK2 agonists are unchanged in these animals. At this point, one can test directly the ability to block both BK1 and BK2 mediated reductions in systemic blood pressure simultaneously with a heterodimeric antagonist.
(§2) FIGS. 8a, b and c comprise actual blood pressure traces from a series of experiments designed to illustrate the ability of a representative heterodimer (CP-0364) to block both BK1 - and BK2 - mediated hypotensive responses simultaneously.
(§3) The expected antagonist activity is based on the data summarized in Tables K and L. The in vivo experimental data reported are qualitative measurements of antagonist activity at three different doses (1, 3 and 10 μg kg^-1 min^-1) in rabbits given a sub-lethal dose of LPS (10 μg), 20 hours before initiation of the experiment.

[3] = biological target: T2, BK2 receptor (Oryctolagus cuniculus, UniProt Q28642); test: blood pressure response to BK2 agonist in LPS-pretreated rabbits; type: in vivo, rabbit; set-up: key to observed antagonist activity BK2, 1 / observed antagonist activity BK2, 3 / observed antagonist activity BK2, 10: +: complete blockade of the blood pressure response to the appropriate agonist; ±: partial blockade; -: no observable effect at the dose indicated; details: rabbits given LPS (10 μg) 20 hours before; for observed antagonist activity BK2, 1: 1 μg kg^-1 min^-1; for observed antagonist activity BK2, 3: 3 μg kg^-1 min^-1; for observed antagonist activity BK2, 10: 10 μg kg^-1 min^-1
T2 construct: from tissue; host or cells: whole animal (rabbit, LPS-pretreated), blood pressure response
T2 sequence (Q28642 1-367): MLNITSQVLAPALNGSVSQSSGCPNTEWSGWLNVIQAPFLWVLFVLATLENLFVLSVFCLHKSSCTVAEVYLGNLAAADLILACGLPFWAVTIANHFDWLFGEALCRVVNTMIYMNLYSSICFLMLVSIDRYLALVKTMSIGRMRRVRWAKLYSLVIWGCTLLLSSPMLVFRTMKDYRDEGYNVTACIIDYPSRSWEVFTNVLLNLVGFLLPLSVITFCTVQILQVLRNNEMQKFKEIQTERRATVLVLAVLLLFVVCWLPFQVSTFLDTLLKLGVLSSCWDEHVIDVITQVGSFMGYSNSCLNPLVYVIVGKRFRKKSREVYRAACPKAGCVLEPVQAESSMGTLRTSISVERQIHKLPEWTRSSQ
Description: as §1, §2, §3

[4] = biological target: T3, BK2 -receptor (Rattus norvegicus, UniProt P25023); test: rat uterus (RU) in vitro, antagonism of BK; details: against BK
T3 construct: guinea-pig ileum (GPI), rat uterus (RU) and rabbit jugular vein (RJV); from tissue; host or cells: rat uterus
T3 sequence (P25023 1-396): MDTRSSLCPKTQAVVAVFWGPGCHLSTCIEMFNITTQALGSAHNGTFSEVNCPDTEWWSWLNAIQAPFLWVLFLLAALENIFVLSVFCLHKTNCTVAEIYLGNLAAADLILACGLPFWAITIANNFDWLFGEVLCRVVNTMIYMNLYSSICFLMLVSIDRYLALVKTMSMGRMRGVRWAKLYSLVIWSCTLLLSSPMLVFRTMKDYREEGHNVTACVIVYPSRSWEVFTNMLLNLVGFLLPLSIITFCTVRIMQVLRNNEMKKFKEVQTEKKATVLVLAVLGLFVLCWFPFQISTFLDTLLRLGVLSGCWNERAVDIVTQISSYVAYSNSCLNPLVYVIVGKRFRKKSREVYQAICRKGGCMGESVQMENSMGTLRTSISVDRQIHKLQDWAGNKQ
Procedure: Thus, in vitro studies were performed on standard assay systems, namely, guinea-pig ileum (GPI), rat uterus (RU) and rabbit jugular vein (RJV). […] The potency of each compound was assessed as a pA2 value according to the method of Arunlakshana & Schild, Br. J. Pharmacol. Chemother., 14:48-58 (1959). The pA2 can be defined as the negative logarithm of the molar concentration of the antagonist in the presence of which the potency of the agonist is reduced two-fold, i.e., twice the amount of agonist is required to produce a given response in the presence of, than in the absence of, the antagonist. A high potency of antagonism is indicated by a high pA2 value. i.e., a low concentration of antagonist is effective.
The percentage recovery (% Rec) was also determined for compounds with respect to each assay.
With respect to duration of activity, it is noted that after exposure to the highest concentration of antagonist, each tissue was washed extensively and then assessed for recovery from the antagonist effect.
Potency in the rat uterus assay was assessed as described above and pA2 values determined.

Structure (SMILES)	BK1 rabbit aorta IC50 [1]	observed antagonist activity BK1, 1 [2]	observed antagonist activity BK1, 3 [2]	observed antagonist activity BK1, 10 [2]	observed antagonist activity BK2, 1 [3]	observed antagonist activity BK2, 3 [3]	pA2 rat uterus (BK2) [4]	IC50 [1]	Kb ([4]; read-out: pA2 rat uterus (BK2) (converted))	observed antagonist activity BK2, 10 [3]
N=C(N)NCCC[C@@H](N)C(=O)N[C@@H](CCCNC(=N)N)C(=O)N1CCC[C@H]1C(=O)N1C[C@H](O)C[C@H]1C(=O)NCC(=O)N[C@@H](Cc1ccccc1)C(=O)N[C@@H](CO)C(=O)N1Cc2ccccc2C[C@@H]1C(=O)N1[C@H](C(=O)O)C[C@@H]2CCCC[C@@H]21 [CP-0267, D R--R--P--J--G--F--S--D Tic--Oic] (HELM PEPTIDE1{[dR].R.P.[Hyp].G.F.S.[O=C([C@H]1Cc2ccccc2CN1[*:1])[*:2]].[O=C(O)[C@@H]1C[C@@H]2CCCC[C@@H]2N1[*:1]]}$$$$V2.0; N-terminus and C-terminus assumed)	7.5 ± 0.2	-	-	+	-	-	5.7 ± 0.1			
CC(C)C[C@H](NC(=O)[C@@H](Cc1ccccc1)NC(=O)[C@H](CSC1CC(=O)N(CCCCCCN2C(=O)CC(SC[C@H](NC(=O)[C@H](Cc3ccccc3)NC(=O)CNC(=O)[C@@H]3C[C@@H](O)CN3C(=O)[C@@H]3CCCN3C(=O)[C@H](CCCNC(=N)N)NC(=O)[C@H](N)CCCNC(=N)N)C(=O)N[C@H](Cc3ccccc3)C(=O)N[C@@H](CC(C)C)C(=O)N[C@@H](CCCNC(=N)N)C(=O)O)C2=O)C1=O)NC(=O)[C@H](Cc1ccccc1)NC(=O)CNC(=O)[C@@H]1C[C@@H](O)CN1C(=O)[C@@H]1CCCN1C(=O)[C@H](CCCNC(=N)N)NC(=O)[C@H](N)CCCNC(=N)N)C(=O)O (stereo partly shown) [CP-0273] (HELM PEPTIDE1{[dR].R.P.[Hyp].G.F.C.[dF].L.R}|PEPTIDE2{[dR].R.P.[Hyp].G.F.C.[dF].L}|CHEM1{[O=C1CC([*:1])C(=O)N1CCCCCCN1C(=O)CC([*:2])C1=O]}$PEPTIDE1,CHEM1,7:R3-1:R1|PEPTIDE2,CHEM1,7:R3-1:R2$$$V2.0; N-terminus and C-terminus assumed)								2000 nM	6.31 nM	
N=C(N)NCCC[C@@H](N)C(=O)N[C@@H](CCCNC(=N)N)C(=O)N1CCC[C@H]1C(=O)N1C[C@H](O)C[C@H]1C(=O)NCC(=O)N[C@@H](Cc1cccs1)C(=O)N[C@@H](CO)C(=O)N1Cc2ccccc2C[C@@H]1C(=O)N1[C@H](C(=O)O)C[C@@H]2CCCC[C@@H]21 [CP-0345, D R--R--P--J--G--Thi--S--D Tic--Oic] (H-[dR]RP[Hyp]G[2Thi]S[dTic][Oic]-OH; N-terminus and C-terminus assumed)	7.1 ± 0.1	-	+	+	-		7.6 ± 0.4			+
CC(C)C[C@H](NC(=O)[C@@H]1CCCN1C(=O)[C@H](CO)NC(=O)[C@H](Cc1ccccc1)NC(=O)CNC(=O)[C@@H]1C[C@@H](O)CN1C(=O)[C@@H]1CCCN1C(=O)[C@H](CS)NC(=O)[C@@H](N)CCCCN)C(=O)O [CP-0374, K--C--P--J--G--F--S--P--L] (HELM PEPTIDE1{K.C.P.[Hyp].G.F.S.P.L}$$$$V2.0; N-terminus and C-terminus assumed)	6.5 ± 0.3						no measurable activity			
CC(C)C[C@H](NC(=O)[C@@H](Cc1ccccc1)NC(=O)[C@H](CO)NC(=O)[C@H](Cc1ccccc1)NC(=O)CNC(=O)[C@@H]1C[C@@H](O)CN1C(=O)[C@@H]1CCCN1C(=O)[C@H](CSC1CC(=O)N(CCCCCCN2C(=O)CC(SC[C@H](NC(=O)[C@H](Cc3ccccc3)NC(=O)CNC(=O)[C@@H]3C[C@@H](O)CN3C(=O)[C@@H]3CCCN3C(=O)[C@H](CCCNC(=N)N)NC(=O)[C@H](N)CCCNC(=N)N)C(=O)N[C@H](Cc3ccccc3)C(=O)N[C@@H](CC(C)C)C(=O)N[C@@H](CCCNC(=N)N)C(=O)O)C2=O)C1=O)NC(=O)[C@H](N)CCCNC(=N)N)C(=O)O (stereo partly shown) [CP-0386] (HELM PEPTIDE1{[dR].R.P.[Hyp].G.F.C.[dF].L.R}|PEPTIDE2{[dR].C.P.[Hyp].G.F.S.[dF].L}|CHEM1{[O=C1CC([*:1])C(=O)N1CCCCCCN1C(=O)CC([*:2])C1=O]}$PEPTIDE1,CHEM1,7:R3-1:R1|PEPTIDE2,CHEM1,2:R3-1:R2$$$V2.0; N-terminus and C-terminus assumed)	7.1 ± 0.2	+	+	+	+	+	7.6 ± 0.1			+
CC(C)C[C@H](NC(=O)[C@@H]1CCCN1C(=O)[C@H](CO)NC(=O)[C@H](Cc1ccccc1)NC(=O)CNC(=O)[C@@H]1C[C@@H](O)CN1C(=O)[C@@H]1CCCN1C(=O)[C@H](CCCCNC(=O)CCCCCN1C(=O)CC(SC[C@H](NC(=O)[C@H](Cc2ccccc2)NC(=O)CNC(=O)[C@@H]2C[C@@H](O)CN2C(=O)[C@@H]2CCCN2C(=O)[C@H](CCCNC(=N)N)NC(=O)[C@H](N)CCCNC(=N)N)C(=O)N[C@H](Cc2ccccc2)C(=O)N[C@@H](CC(C)C)C(=O)N[C@@H](CCCNC(=N)N)C(=O)O)C1=O)NC(=O)[C@H](N)CCCNC(=N)N)C(=O)O (stereo partly shown) [CP-0389] (HELM PEPTIDE1{[dR].R.P.[Hyp].G.F.C.[dF].L.R}|PEPTIDE2{[dR].K.P.[Hyp].G.F.S.P.L}|CHEM1{[O=C1CC([*:1])C(=O)N1CCCCCC(=O)[*:2]]}$PEPTIDE1,CHEM1,7:R3-1:R1|PEPTIDE2,CHEM1,2:R3-1:R2$$$V2.0; N-terminus and C-terminus assumed; bridges inferred)	6.5 ± 0.1						7.4 ± 0.1			
